Laboratory results published in paper PMC5412445, “ZeGlobalTox: An Innovative Approach to Address Organ Drug Toxicity Using Zebrafish” (International Journal of Molecular Sciences, 2017).
Entries after “also recorded” stand apart in the source; their conditions may differ. Structures can show the parent of a compound that is named as a salt.

How the values were obtained:
[1] = tested on: humans; settings: known toxicity in humans, ref TOXNET (HSDB), Side effects (EMBL), drugs.com, cited from earlier work; for Neurotoxicity (toxicity in humans): [22],[30],[31],[34],[35]; for Cardiotoxicity (toxicity in humans) / Hepatotoxicity (toxicity in humans): ema.europa; for Cardiotoxicity (toxicity in humans): [19],[20],[21]; for Hepatotoxicity (toxicity in humans): [24],[26],[27],[32],[33]
[2] = tested on: wild type zebrafish embryos; test: in vivo; assay type: in vivo; settings: embryos incubated 3 to 96 hpf; 5 logarithmic concentrations 0.1 µM to 1 mM; 1% DMSO
Description: (§1) Several issues were considered when planning the experimental protocol. The main concern was that drug-induced mortality and/or developmental toxicity (teratogenicity) could mask possible organ-toxicities appearing later in development. […] This preliminary assay allowed for the identification of non-mortal/non-teratogenic concentrations—no observed effect concentration (NOEC)—to use in the following assays. The hypothesis is that NOEC could affect organ physiology (organ toxicity), while uncoupled from putative developmental toxicity side-effects affecting organ development or function. Another consideration was to start drug incubations at 96 hours post fertilization (hpf), when the analysed organs are close to or already developed (Figure 1B). The overall aim is to understand the drug impact on organ physiology and function rather than early embryogenesis. The third consideration was to organize the sequential organ evaluation during the experimental and drug incubation time.
(§2) 1% DMSO, which is the constant solvent concentration in all conditions, was used as the negative control.
(§3) Thus, 20 wild type (wt) zebrafish embryos per condition were incubated with tested compounds from 3 to 96 hpf. The test was performed in 5 logarithmic concentrations per drug (from 0.1 µM to 1 mM). Each larva was analysed for mortality, body deformity, edema, tail detachment, pigmentation, heart activity, heart edema, and motor activity. […] DMSO 1% was used as the negative control in all experiments.

[3] = tested on: zebrafish larvae; test: ZeGlobalTox neurotoxicity evaluation (locomotion, light/dark trial); assay type: in vivo, zebrafish (Danio rerio); settings: 120 hpf, drug from 96 hpf at NOEC (MPTP 100 µM, paracetamol 2600 µM)
Procedure: By 5 dpf, zebrafish larvae perform spontaneous swimming and their visual system is fully developed. Therefore, behavioural experiments were performed from this time point (Figure 4A). Deviations in total distance moved, in response to photo-visual stimulation, were analysed as a direct measurement of neurotoxicity. Thus, drugs increasing or decreasing total distance moved when compared to the DMSO-only group were considered neurotoxic. As the positive neurotoxic control we used MPTP, which has been identified as a neurotoxic drug in humans and zebrafish.
Immediately after heart video acquisition, larvae are washed with E3 medium to remove tricaine methanesulfonate from the solution. Fresh drug solution is added and the larvae are transferred individually in a volume of 150 µL to 96 well plates.
Neurotoxicity is analysed at 120 hpf by locomotion assessment using the EthoVision XT 11.5 software and the DanioVision device from Noldus Information Technologies, Wageningen, The Netherlands. This closed system consists of a camera placed above a chamber with circulating water and a temperature sensor set at 28 °C. The 96-well plates are placed in the chamber, which can then be illuminated with white light using the software. Larvae are then left for 20 min under these conditions and with the lights on to help their acclimation. Finally, larvae locomotion is measured during 50′ under the following light/dark conditions: 10′ darkness-10′ Light-10′ darkness-10′ Light-10′ darkness. Total distance moved (in mm) is acquired under this light/dark trial. Due to circadian rhythms, all locomotion assays were performed from 13:00 pm onwards to ensure steady activity of the zebrafish.
Neurotoxicity is assessed by comparing locomotion differences among the tested compounds (solved in DMSO) and the negative control group (DMSO 1%-only).

[4] = tested on: zebrafish larvae liver; test: ZeGlobalTox hepatotoxicity: Oil Red O staining (steatosis and yolk lipid accumulation); settings: 132 hpf; for Percentage of larvae presenting steatosis: 36 h drug incubation at NOEC (EtOH 2%, MPTP 100 µM), DMSO 24.44%
Procedure: In order to assess drugs producing steatosis and yolk lipid accumulation, and subsequent to the RFP filtered images being acquired, zebrafish larvae were stained with Oil Red O. Larvae and were sorted into steatosis positive or negative, yolk lipid accumulation, or both (see materials and methods).
For the ZeGlobalTox assay, fertilized Tg(cmlc2:GFP; fabp10:RFP; ela31:EGFP) zebrafish embryos were collected in E3 medium (5 mM NaCl, 0.17 mM KCl, 0.33 mM CaCl2, 0.33 mM, MgSO4) in Petri dishes. At 3, 24, and 48 hpf, dishes were observed and all not fertilized, abnormal, or coagulated eggs were discarded. At 96 hpf, 20 larvae per condition were incubated with the NOECs from the different drugs and allowed to develop until 132 hpf at 28.5 °C.
After 36 h of drug incubation (132 hpf), embryos are fixed in 4% paraformaldehyde (158127-500G, Sigma-Aldrich, Saint Louis, MO, USA) for 2–4 h at room temperature (RT) and then are 3× washed with PBS.
In order to detect the presence of steatosis and yolk lipid retention, zebrafish larvae were stained with Oil Red O (O0625-25G, Sigma-Aldrich, Saint Louis, MO, USA) as described in [77]. Briefly, the skin pigment from fixed larvae is removed by incubating with bleaching solution (for 10 mL: 6 mL H2O, 0.25 mL 20× SSC, 0.5 mL formamide, 3.3 mL H2O2) during 20 min at RT. Then, the larvae are 5× washed with PBS. Bleached embryos are first submerged in 85% Propylene glycol (PG) (134368-1L, Sigma-Aldrich, Saint Louis, MO, USA) for 10 min and then in 100% PG for another 10 min before staining them with Oil Red O 0.5% in 100% PG (overnight, at RT and with gentle rocking). Oil Red O stained embryos are washed in 100% PG for 30 min, 50 min in 85% PG, and 40 min in 85% PG with an equal volume of PBS. Finally, embryos are washed 1× with PBS before adding 80% glycerol (G7757-500ML, Sigma-Aldrich, Saint Louis, MO, USA). Bright field images are taken to detect both steatosis and yolk lipid accumulation. […] Yolk lipid retention is considered positive when a red strong signal is observed in the yolk area (Figure 5F).
DMSO 1% treated larvae were used as the negative control group.

[5] = tested on: zebrafish larvae; design: method as in PMID 16408054, PMID 22744888; settings: ref [50],[57]; cited from earlier work
[6] = tested on: zebrafish larvae heart; test: ZeGlobalTox cardiotoxicity evaluation (heart video, ZeCardio software); assay type: in vivo, zebrafish (Danio rerio); settings: 100 hpf, 4 h after drug incubation at NOEC (haloperidol 10 µM)
Procedure: Four cardiac parameters were evaluated to assess whether a compound was cardiotoxic: heart rate (beats per minute, BPM), QTc prolongation, ejection fraction (EJF), and cardiac arrest. […] 1% DMSO was used as the negative control.
Cardiotoxicity evaluation was performed from 96 hpf, when the zebrafish heartbeat is already stabilised, so the analysis might not be altered by unstable beating. Zebrafish hearts were video-recorded at 4 h after drug incubation (100 hpf) and analysed using the ZeCardio® β software (Figure 3A).
After 4 h of drug incubation (100 hpf), zebrafish larvae were anesthetized by immersion in […] tricaine methanesulfonate (A4050, Sigma-Aldrich, Saint Louis, MO, USA)/E3 solution. […] The 1% DMSO treated embryos were used as negative cardiotoxic controls. Embryos were positioned in an agarose based mold to allow their appropriate orientation under the fluorescence stereo microscope (Olympus MVX10). Individual fluorescent hearts were recorded during 60 s each (Figure 6A). Videos were acquired with a high-speed recording camera (Hamamatsu C11440 ORCA-flash 2.8) and analysed with the ZeCardio® β software to extract different cardiac parameters—heart rate, cardiac arrest, QTc prolongation, and Ejection Fraction (EJF) (Figure 6B).
ZeCardio® β software, developed by ZeClinics and currently in β status, provides a graphical user interface (GUI) that facilitates the semi-automatic analysis of living heart videos. Interactive analysis of the different parameters functions as follows: The user draws a line along the heart axis, from ventricle to atrium, to initiate the calculation. […] All lines can be subjected to modification of their angles and lengths.
Heart beat frequency for each chamber is detected and frequencies are presented in the GUI as a mean. A plot distribution is used for assessing beat stability over time (Figure 6F). In the same fashion, chamber specific cardiac arrest is measured as the longest beating pause (Figure 6H). No beating chambers and/or incorrect bpm can be manually flagged when detected.
For calculation of the QTc interval (linearly corrected QT interval), the Framingham formula (QTc = QT + 0.154 (1 − RR)) was adjusted for zebrafish as QTc = QT + 0.154 (2.66 − RR). RR = 6.6 ms/measured bpm is applied (Figure 6G). Finally, the Ejection Fraction, calculated as the maximal dilatation (the diastolic diameter, DD) versus the maximal contraction (systolic diameter, SD) is measured in % as EF% = (DD − SD)/DD*100 (Figure 6G). Computed values for the described parameters were exported in .csv format (Figure 6H).

[7] = in vivo; assay type: in vivo; settings: zebrafish, in vivo; mortality; embryos incubated 3 to 96 hpf; 5 logarithmic concentrations 0.1 µM to 1 mM; 1% DMSO
Description: as §1, §2, §3

Structure (SMILES) | Neurotoxicity (toxicity in humans) [1] | Cardiotoxicity (toxicity in humans) [1] | Hepatotoxicity (toxicity in humans) [1] | 96 hpf NOEC [2] [µM] | Motility (total distance moved) compared to DMSO [3] | Percentage of larvae presenting steatosis [4] [%] | Impact on the heart rate in zebrafish larvae [5] | Percentage of larvae presenting yolk lipid retention ([4]; 36 h drug incubation at NOEC (paracetamol 2600 µM), DMSO 22.22%) [%] | Heart rate (beats per minute) compared to DMSO-only [6] | Longest cardiac arrest compared to DMSO-only [6] | QTc interval compared to DMSO-only [6] | 96 hpf LOEC [2] [µM] | LC50 [7] [µM]
CNCC(O)c1ccc(O)c(O)c1.Cl (racemic) [(±)-Epinephrine HCL, (±)-epinephrine hydrochloride] | Toxic ^1,2,3 | Toxic ^1,2,3 | Safe | 1000.00 | increased motility | 80 | – | – | – | – | – | – | –
CC(=O)Nc1ccc(O)cc1 [Acetaminophen] | Toxic ^2,3 | Toxic ^1,2,3 | Toxic ^1,2,3 [24] | – | Decreased motility | – | no impact | 60 | – | – | – | – | –
CN1CC=C(c2ccccc2)CC1 [MPTP, 1-methyl-4-phenyl-1,2,3,6-tetrahydropyridine] | Toxic [22, 30, 31] | – | – | – | Decreased motility | 50 | – | – | – | – | – | – | –
CC(C)NCC(O)COc1cccc2[nH]ccc12 (stereo not drawn) [Pindolol, pindolol] | Toxic ^2,3 | Toxic ^1,2,3 | Safe | – | increased motility | – | – | – | decreased the heart rate | Longer cardiac arrest | QTc interval prolongation; also recorded: increased QTc | 1000 | > 1000
CN1CCN(CCCN2c3ccccc3Sc3ccc(C(F)(F)F)cc32)CC1 [Trifluoperazine HCL, trifluoperazine hydrochloride] | Toxic ^1,2,3 | Toxic ^1,2,3 | Toxic ^1,2,3 | 10 | Decreased motility | 85 | – | – | decreased the heart rate | Longer cardiac arrest | – | 100 | 31.6
CC[C@]1(O)C[C@H]2CN(CCc3c([nH]c4ccccc34)[C@@](C(=O)OC)(c3cc4c(cc3OC)N(C=O)[C@H]3[C@@](O)(C(=O)OC)[C@H](OC(C)=O)[C@]5(CC)C=CCN6CC[C@]43[C@@H]65)C2)C1 [Vincristine, vincristine] | Toxic ^1,2,3 | Toxic ^1,2,3 | Safe | – | increased motility | – | – | – | decreased the heart rate | Longer cardiac arrest | – | 100 | 31.6
